Reference: US20140243415A1, “COMPOUNDS INHIBITING GALECTIN-1 EXPRESSION, CANCER CELL PROLIFERATION, INVASION, AND TUMORIGENESIS” (ONCOETHIX SA, priority 2011, published 2014)

Columns and labels:
Format in all cases: cell-based, human
[1] = system: SQ20B cells; experiment: In vitro growth inhibition assay; conditions: SQ20B, OTX-008 added to semaphorin-3A or lactose
Method: FIG. 5. Modulation of the galectin-1/semaphorin-3A/neuropilin system in SQ20B cells. A—Effects of galectin-1 (Gall), semaphorin-3A (Sema3A), lactose, with or without four different concentrations of OTX-008 on SQ20B growth at day 6. Embedded figure: Proliferation assay of SQ20B and SQ-shGAL1. B—In vitro matrigel invasion assay of SQ20B exposed to […] galectin-1, 1 μg/ml semaphorin-3A, 200 ng/ml lactose or 10 μM UO126 with or without 3 μM OTX-008. Embedded figure: In vitro matrigel invasion assay of SQ20B and SQ-shGAL1. Invasion was quantified after 48 h by counting the average number of invaded cells.
For proliferation assay, cells were seeded in 96-well tissue culture plates at a density of 1.5×10^3 cells/well. MTT assay was conducted daily to determine the number of viable cells in untreated control and treated group. Growth inhibition curves were plotted as a percentage of cells for each experimental condition.
Galectin-1 may form extracellular lattices counteracting the inhibitory properties of semaphorin-3A on neuropilin-1, eventually leading to the modulation of the vascular endothelial growth factor (VEGFR) and platelet derived growth factor (PDGFR) receptors, fibronectin, and laminin activity SQ20B cells expressed significant mRNA and protein levels of semaphorin-3A and neuropilin-1, PDGFRa&(, VEGF A-D, and VEGFR1-3 (Supplementary FIG. 2A). Thus, SQ20B cells were selected to evaluate the effects of OTX-008 on galectin-1/semaphorin-3A interactions. No difference between SQ20B cells growing in plastic or fibronectin- and laminin-coated plates. […] Galectin-1 and semaphorin-3A induced invasion was inhibited by OTX-008 mimicking the effects of lactose in this model.

[2] = system: p-AKT; experiment: Western blot of signaling in SQ20B cells; conditions: 3 μM OTX-008, 10 min to 24 h
Method: (§1) FIG. 3. Effects of OTX-008 on galectin-1 expression and localization. A—Western Blot of galectin-1 on SQ20B cells treated with 3 μM OTX-008 for 24 h, 48 h and 72 h. B and C—Immunofluorescence of galectin-1 on SQ20B cells treated with 3 μM OTX-008 for 24 and 48 h. B—OTX-008 treatment decreases galectin-1 immunostaining in SQ20B cells. C—Galectin-1 translocates into the nucleus after OTX-008 exposure. D—Western Blot of p-AKTser473, AKT, p-S6, p-ERK1/2, ERK and p-PKCα in SQ20B cells treated with 3 μM OTX-008 for 10 min, 1 h, 2 h, 5 h and 24 h.
(§2) Cells were lysed in buffer containing 50 mM HEPES (pH 7.6), 150 mM NaCl, 1% Triton X-100, 2 mM sodium vanadate, 100 mM NaF, and 0.4 mg/ml phenylmethylsulfonyl fluoride. Equal amounts of protein (30 μg/lane) were subjected to SDS-PAGE and transferred to nitrocellulose membranes. Membranes were blocked with 5% milk in 0.05% Tween 20/phosphate-buffered saline and then incubated with the primary antibody overnight. Membranes were then washed and incubated with the secondary antibody conjugated to horseradish peroxidase. Bands were visualized by using the enhanced chemiluminescence Western blotting detection system. Densitometric analysis was performed under conditions that yielded a linear response. The following antibodies were used: anti-p-cdc2 (tyr15), anti-p-wee1 (ser642), anti-p-p44/42 MAPK (thr202/tyr204), anti-p44/42, anti-p-AKT (ser473), anti-AKT, anti-p-S6 (ser235/236) (Cell Signaling, Saint Quentin Yvelines, France), anti-p-PKCα (ser657) (BD Biosciences, Le-Pont-de-Claix, France) and anti-galectin-1 (Abcam, Cambridge, Mass., USA). All antibodies were used at a 1:1000 dilution.
(§3) Intracytoplasmic galectin-1 was previously shown to stabilize intracellular GTP-Ras conformation, facilitating Ras downstream signaling. Signaling events following OTX-008 exposure in SQ20B cells displaying no EGFR, K-Ras, and B-Raf mutation were investigated (FIG. 5A).

[3] = system: p-ERK1/2; experiment: Western blot of signaling in SQ20B cells; conditions: 3 μM OTX-008, 10 min to 24 h
Method: as §1, §2, §3

[4] = system: p-S6; experiment: Western blot of signaling in SQ20B cells; conditions: 3 μM OTX-008, 10 min to 24 h
Method: as §1, §2, §3

[5] = system: γH2AX; experiment: γH2AX expression
[6] = system: wee1 (serine 642); experiment: Western blot of phosphorylated wee1 in SQ20B; conditions: 3 μM OTX-008 for 72 h
Method: as §2
To study the mechanism of OTX-008-induced inhibition of cell proliferation, the effect of OTX-008 on cell cycle in SQ20B cells was examined (FIG. 5B). […] Activation of cdc2 (cdk1) by de-phosphorylation of tyrosine 15 is required for G2/M transition. […]

Compound: CN(C)CCNC(=O)COc1c2cccc1Cc1cccc(c1OCC(=O)NCCN(C)C)Cc1cccc(c1OCC(=O)NCCN(C)C)Cc1cccc(c1OCC(=O)NCCN(C)C)C2 [OTX-008]
- antiproliferative effects in combination with semaphorin-3A or lactose [1]: enhanced the antiproliferative effects
- AKT ser473 phosphorylation [2]: transient activation of AKT^s473 followed by a complete and sustained inhibition of p-AKT
- p-ERK1/2 activity [3]: progressively but sustainably inhibited p-ERK1/2 activity
- p-S6 [4]: complete and sustained inhibition
- γH2AX expression [5]: no direct effects
- wee1 phosphorylation on serine 642 [6]: decreased inactivating phosphorylation of wee1
